Several values for one entry are separate records, joined by “and”; a condition that tells them apart may be missing. Identical values can stand only once. Entries after “also recorded” stand apart in the source; their conditions may differ. Values belong to the molecule of their own block, whether it stands above or below them.
Columns and labels:
[1] = target: T1, HDM2 (Homo sapiens, UniProt Q00987); assay: competition fluorescence polarization experiment (displacement of Flp4 peptide); assay type: binding; details: Flp4 at 10 nM with 2 µM HDM2, series of concentrations of spiroligomer; read-out: Ki against Flp4 peptide
T1 construct: A fusion protein consisting of residues 1-140; unnamed fusion partner ('fusion protein'); made in house; host or cells: E. coli BL21
T1 sequence (Q00987 1-140): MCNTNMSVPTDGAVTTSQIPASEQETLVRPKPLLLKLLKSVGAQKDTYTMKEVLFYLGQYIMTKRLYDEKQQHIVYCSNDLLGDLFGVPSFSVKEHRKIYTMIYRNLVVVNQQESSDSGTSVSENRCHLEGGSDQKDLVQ

[2] = target: T1, HDM2; assay: as above; assay type: binding; details: hDM2 0.4 μM, Flp4 10 nM, three independent trials
Description: Competition Fluorescence Polarization Experiments. To assess the ability of oligomer 2 to […]
competition experiments were undertaken. hDM2 (0.4 μM) and Flp4 control peptide (10 nM) were incubated at room temperature for 30 minutes in binding buffer, followed by the addition of serial dilutions of oligomer 2 (final conc. 400 μM to 0.194 μM). The binding experiments were incubated for a further 30 minute time period, followed by recording of the polarization data. See […]
Bis- Pept ide ( nM ) Po lar A ( mP)
Table S.6. Table of raw values used for the plot of the competition binding experiment; X values are oligomer 2 concentration (in nM) and Y values are polarization (in millipolarization units); data from three independent trials is shown.

[3] = target: T2, HDM2_25–117 (Homo sapiens, UniProt Q00987); assay: direct binding fluorescence polarization assay; details: fluorescein labeled ligand at 10 nM, varying HDM2; read-out: Kd (HDM2/MDM2)
T2 construct: unnamed fusion partner ('fusion protein'); made in house; host or cells: E. coli BL21
T2 sequence (Q00987 25-117): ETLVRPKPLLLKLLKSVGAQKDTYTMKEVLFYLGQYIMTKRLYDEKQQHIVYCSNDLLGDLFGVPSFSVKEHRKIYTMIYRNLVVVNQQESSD
Description: To measure the binding affinity of the functionalized spiroligomers to HDM2 we utilized a direct binding fluorescence polarization assay. The binding of the fluorescein labeled spiroligomers was measured at 10 nM spiroligomer in the presence of varying concentrations of HDM2_25–117 [31]. […] The initial screen of spiroligomers including 3–7 was carried out on the spiroligomer backbone containing all (S) stereochemistry to identify appropriate functional groups to mimic the side chains of Phe19, Trp23 and Leu26 of the p53 helix.
HDM2 Protein Expression. A fusion protein consisting of residues 1-140 (the plasmid was a generous gift from the lab of Neil Zondlo, University of Delaware) was prepared by over-expression.4 Plasmids were used to transform chemically competent E-coli BL21 Cells (Novagen), and a single colony was used to inoculate 2×4 mL LB media culture tubes containing 0.1 mg/mL ampicillin, at 37 °C overnight. These overnight cultures were used to inoculate a 1 L culture of TB media containing 0.1 mg/ml ampicillin. The culture was incubated at 37 °C with shaking at 250 rpm until the optical density at 600 nm reached to 0.9 absorbance units. Protein overexpression was then induced by the addition of 20% isopropyl β-D-thiogalactoside (IPTG) to 0.4 mM final concentration. The culture was then grown for additional 5 hours at 30 °C. Then cells were harvested at 4 °C by centrifugation at 4500 rpm for 20 min.
The cell pellet was resuspended in chilled 1x Binding Buffer (0.5 M NaCl, 20 mMTris-Hcl, 5 mM imidazole, pH 7.9), frozen and stored at -80 °C until protein purification.
Protein Purification. The frozen cell pellet was thawed at 4 °C and lysed by sonication for 2 minutes with 10 sec on and 20 sec off. Cell debris was pelleted by centrifugation for 30 min at 15000 g, 4 °C and the supernatant was filtered through a 0.2 μm syringe filter. A column was prepared using 2 mL Novagen His-Bind suspended resin and resin was washed with 3 volumes DI water. The flow rate maintained was not more than 0.5 ml/min throughout the purification.
The resin was charged with 5 vol 1x Charge Buffer (50 mM NiSO4) and then equilibrated with 3 vol 1x Binding Buffer (5 mM imidazole). After loading the column with prepared extract, the resin was washed with 10 vol 1x Binding Buffer and then with 6 vol 1x Wash Buffer (10 mM imidazole). Protein was then eluted with 6 vol 1x Elution Buffer (1 M imidazole). The eluate was captured in fractions of 0.5 ml. Fractions were assayed with Coomasie blue and desired fractions were combined and dialyzed using spectra/por 6 Dialysis Membranes of 10,000 MWCO (Spectrum Laboratories) in PBS (pH 7.4, 5 mM EDTA and 0.5 mM DTT) for overnight.
The resulting protein was characterized by SDS-PAGE (4-20% gradient gel) for purity analysis and concentrations were measured by UV analysis.
Fresh protein was used immediately for protein binding experiments. […]
Direct Binding Fluorescence Polarization Experiments. Fluorescence polarization experiments were undertaken to assess the ability of spiroligomers to bind HDM2, a protein with hydrophobic cleft that binds the p53 N-terminal helical domain. Fluoresceinated oligomers (conc. of 10 nM) were incubated for 30 minutes at room temperature with sequential dilutions of […]

[4] = tested on: HDM2, p53Y220C and p21 in Huh7 cells; assay: Western blot analysis of HDM2, p53 and p21; assay type: cell-based, human
Description: Huh7 cells were incubated with spiroligomer 1 and Nutlin-3 in media at 2, 5, 10 and 20 µM for 17 hours at 37°C. […] Huh7 cells were then incubated with 1 at 15 µM and cells were harvested at 2, 4, 6, 8, 12 and 24 hours. […]
Cell Culture and Treatment. HepG2 (expressing wild-type p53) and Huh7 (expressing mutant p53) cell lines were purchased from the American Type Culture Collection (ATCC) and cultured as monolayers in Dulbecco’s modified Eagle’s medium (DMEM) (Invitrogen) supplemented with 100 mM nonessential amino acid solution, 100 mM sodium pyruvate, 100 U/mL penicillin, 100 μg/mL streptomycin, and 10% heat inactivated fetal bovine serum (FBS) (all from Hyclone).
Cells were maintained at 37° C and 5% CO2 and were treated with media that contained 0.5%
FBS. Nutlin-3 (Sigma) was dissolved in 0.01% DMSO (Sigma).
Both nutlin-3 and spiroligomers were added into the medium for final concentrations of 2 µM, 5 µM, 10 µM and 20 µM for 24 hours. For the western blot experiments detailed below, the time length for incubation with bis-peptide was 17 hours. […]
Western Blotting. For protein extraction, cells were lysed in cell lysis buffer (Cell Signaling) with a protease inhibitor cocktail for 20 minutes on ice. Protein extracts (50 μg) were separated by SDS-PAGE electrophoresis, transferred to nitrocellulose membranes (Schleicher & Schuell), and incubated overnight with primary antibodies to p53, HDM2, p21, and β-actin (all from Santa Cruz Biotechnology). The blots were developed using ECL plus detection system (Amersham Biosciences) and exposed to Kodak imaging films (Kodak BioMax). Images were quantified using ImageJ software (NIH).
Figure S.5. Detection of bis-peptide 1 and Nutlin-3 in HepG2 (left) and Huh7 (right) cells. The concentration of each compound is given in μM and the three proteins (HDM2, p53 and p21) bands are […]

SMILES: CC(C)CN1C(=O)C2CC3(CN2C(=O)C12CC1C(=O)N(Cc4ccc(Cl)c(Cl)c4)C4(CC5C(=O)NC(CCc6ccccc6)C(=O)N5C4)C(=O)N1C2)NC(=O)C(CCC(=O)O)NC3=O (stereo not drawn) [Compound 2]
Ki [1]: 5 µM
polarization of Flp4 in competition ([2]; oligomer 194.8242 nM): 115. 56 mP and 119. 19 mP and 107. 52 mP
polarization of Flp4 in competition ([2]; oligomer 389.6484 nM): 109. 71 mP and 120. 5 mP and 117. 89 mP
polarization of Flp4 in competition ([2]; oligomer 779.2969 nM): 107. 07 mP and 119. 05 mP and 110. 95 mP
polarization of Flp4 in competition ([2]; oligomer 1558.594 nM): 102. 29 mP and 112. 93 mP and 113. 76 mP
polarization of Flp4 in competition ([2]; oligomer 3117.188 nM): 103. 88 mP and 103. 29 mP and 109. 28 mP
polarization of Flp4 in competition ([2]; oligomer 6234.375 nM): 97.23 mP and 94.66 mP and 93.84 mP
polarization of Flp4 in competition ([2]; oligomer 12468.75 nM): 91.7 mP and 86.62 mP and 91.97 mP
polarization of Flp4 in competition ([2]; oligomer 24937.5 nM): 88.82 mP and 82 mP and 88.53 mP
polarization of Flp4 in competition ([2]; oligomer 49875 nM): 86.21 mP and 84.81 mP and 86.83 mP
polarization of Flp4 in competition ([2]; oligomer 99750 nM): 78.06 mP and 93.73 mP and 94.13 mP
polarization of Flp4 in competition ([2]; oligomer 199500 nM): 84.38 mP and 85.9 mP and 80.84 mP
polarization of Flp4 in competition ([2]; oligomer 399000 nM): 75.41 mP and 67.78 mP and 78.26 mP

SMILES: CC(C)CCN1C(=O)[C@@H]2C[C@@]3(CN2C(=O)[C@@]12C[C@H]1C(=O)N(Cc4ccc(Cl)c(Cl)c4)[C@]4(C[C@H]5C(=O)N[C@@H](Cc6ccccc6)C(=O)N5C4)C(=O)N1C2)NC(=O)[C@H](CCCCNC(=S)Nc1ccc2c(c1)C(=O)OC21c2ccc(O)cc2Oc2cc(O)ccc21)NC3=O [Compound 5]
Kd [3]: 6.3 µM

SMILES: CC(C)CN1C(=O)[C@@H]2C[C@@]3(CN2C(=O)[C@@]12C[C@H]1C(=O)N(Cc4ccc(Cl)c(Cl)c4)[C@@]4(C[C@H]5C(=O)N[C@H](CCc6ccccc6)C(=O)N5C4)C(=O)N1C2)NC(=O)[C@H](CCCCNC(=S)Nc1ccc2c(c1)C(=O)OC21c2ccc(O)cc2Oc2cc(O)ccc21)NC3=O [Compound 8]
Kd [3]: 23 µM

SMILES: CC(C)CN1C(=O)[C@@H]2C[C@@]3(CN2C(=O)[C@@]12C[C@H]1C(=O)N(Cc4ccc(Cl)c(Cl)c4)[C@]4(C[C@@H]5C(=O)N[C@@H](CCc6ccccc6)C(=O)N5C4)C(=O)N1C2)NC(=O)[C@H](CCCCNC(=S)Nc1ccc2c(c1)C(=O)OC21c2ccc(O)cc2Oc2cc(O)ccc21)NC3=O [Compound 9]
Kd [3]: 6.7 µM

SMILES: CC(C)CN1C(=O)[C@@H]2C[C@@]3(CN2C(=O)[C@@]12C[C@H]1C(=O)N(Cc4cccc5ccccc45)[C@]4(C[C@H]5C(=O)N[C@@H](Cc6ccccc6)C(=O)N5C4)C(=O)N1C2)NC(=O)[C@H](CCCCNC(=S)Nc1ccc2c(c1)C(=O)OC21c2ccc(O)cc2Oc2cc(O)ccc21)NC3=O [Compound S10]
Kd [3]: 16 µM

SMILES: COc1ccc(C2=N[C@@H](c3ccc(Cl)cc3)[C@@H](c3ccc(Cl)cc3)N2C(=O)N2CCNC(=O)C2)c(OC(C)C)c1 [Nutlin-3]
HDM2 levels relative to control cells [4]: not seen; also recorded: very weak stabilization effect on HDM2
HDM2 levels with time [4]: only very small changes; also recorded: very little effect on HDM2
p53Y220C levels [4]: No visible effect
p53Y220C levels with time [4]: no observable effect on p53Y220C levels

Results, then the molecule that gave them:

Kd [3]: 4.8 µM
SMILES: CC(C)CN1C(=O)[C@@H]2C[C@@]3(CN2C(=O)[C@@]12C[C@H]1C(=O)N(Cc4ccc(Cl)c(Cl)c4)[C@@]4(C[C@@H]5C(=O)N[C@H](CCc6ccccc6)C(=O)N5C4)C(=O)N1C2)NC(=O)[C@@H](CCCCNC(=S)Nc1ccc2c(c1)C(=O)OC21c2ccc(O)cc2Oc2cc(O)ccc21)NC3=O [Compound 10]

Kd [3]: 4.6 µM
SMILES: CC(C)CN1C(=O)[C@@H]2C[C@@]3(CN2C(=O)[C@@]12C[C@H]1C(=O)N(Cc4ccc(Cl)c(Cl)c4)[C@@]4(C[C@H]5C(=O)N[C@H](CCc6ccccc6)C(=O)N5C4)C(=O)N1C2)NC(=O)[C@@H](CCCCNC(=S)Nc1ccc2c(c1)C(=O)OC21c2ccc(O)cc2Oc2cc(O)ccc21)NC3=O [Compound 11]

Kd [3]: 1.6 µM
SMILES: CC(C)CN1C(=O)[C@@H]2C[C@@]3(CN2C(=O)[C@@]12C[C@H]1C(=O)N(Cc4ccc(Cl)c(Cl)c4)[C@]4(C[C@H]5C(=O)N[C@@H](CCc6ccccc6)C(=O)N5C4)C(=O)N1C2)NC(=O)[C@@H](CCCCNC(=S)Nc1ccc2c(c1)C(=O)OC21c2ccc(O)cc2Oc2cc(O)ccc21)NC3=O [Compound 12]

Reference: publication PMC3475717, “A Spiroligomer α-Helix Mimic That Binds HDM2, Penetrates Human Cells and Stabilizes HDM2 in Cell Culture” (PLoS ONE, 2012)
